Data as given in PMC7914897, “Cytotoxic Potential of a-Azepano- and 3-Amino-3,4-SeCo-Triterpenoids” (International Journal of Molecular Sciences, 2021).

Tests used:
Conditions in all cases: Homo sapiens
[1] = system: MDA-MB-31/ATCC (Breast cancer); assay: NCI-60 screen (SRB, 48 h)
[2] = system: OVCAR-5 (Ovarian cancer); assay: NCI-60 screen (SRB, 48 h)
[3] = system: MOLT-4 (Leukemia); assay: NCI-60 screen (SRB, 48 h)
[4] = system: Renal Cancer subpanel; assay: NCI-60 screen, subpanel
[5] = system: SK-MEL-28 (Melanoma); assay: NCI-60 screen (SRB, 48 h)
[6] = system: CCRF-CEM (Leukemia); assay: NCI-60 screen (SRB, 48 h)
[7] = system: SNB-19 (CNS cancer); assay: NCI-60 screen (SRB, 48 h)
[8] = system: SK-MEL-2 (Melanoma); assay: NCI-60 screen (SRB, 48 h)
[9] = system: MALME-3M (Melanoma); assay: NCI-60 screen (SRB, 48 h)
[10] = system: NCI-H226 (NSC lung cancer); assay: NCI-60 screen (SRB, 48 h)
[11] = system: Leukemia subpanel; assay: cells
[12] = system: OVCAR-3 (Ovarian cancer); assay: cells
[13] = system: MDA-MB-468 (Breast cancer); assay: cells
[14] = system: RPMI-8226 (Leukemia); assay: NCI-60 screen (SRB, 48 h)
[15] = system: Melanoma subpanel; assay: NCI-60 screen, subpanel
[16] = system: U251 (CNS cancer); assay: NCI-60 screen (SRB, 48 h)
[17] = system: 786-0 (Renal cancer); assay: NCI-60 screen (SRB, 48 h)
[18] = system: MDA-MB-435 (Melanoma); assay: NCI-60 screen (SRB, 48 h); format: cell-based
[19] = system: SNB-75 (CNS cancer); assay: NCI-60 screen (SRB, 48 h)
[20] = system: NCI-H460 (NSC lung cancer); assay: NCI-60 screen (SRB, 48 h)
[21] = system: MCF7 (Breast cancer); assay: NCI-60 screen (SRB, 48 h)
[22] = system: EKVX (NSC lung cancer); assay: NCI-60 screen (SRB, 48 h)
[23] = system: HCC-2998 (Colon cancer); assay: NCI-60 screen (SRB, 48 h)
[24] = system: Prostate cancer subpanel; assay: NCI-60 screen, subpanel
[25] = system: HOP-62 (NSC lung cancer); assay: NCI-60 screen (SRB, 48 h)
[26] = system: SK-MEL-5 (Melanoma); assay: NCI-60 screen (SRB, 48 h)
[27] = system: Breast cancer subpanel; assay: NCI-60 screen, subpanel
[28] = system: COLO 205 (Colon cancer); assay: NCI-60 screen (SRB, 48 h)
[29] = system: SK-OV-3 (Ovarian cancer); assay: NCI-60 screen (SRB, 48 h)

## Cc1ccc(S(=O)(=O)OC[C@]23CCC(C)(C)C[C@H]2C2=CC[C@@H]4[C@@]5(C)CCCNC(C)(C)[C@@H]5CC[C@@]4(C)[C@]2(C)CC3)cc1 [Compound 15]
[1]
  GI50: 1.91 µM
[1]; 48 h, read-out: TGI
  IC (TGI): 4.12 µM
[2]; OVCAR-5
  GI50: 1.61 µM
[2]; OVCAR-5, 48 h, read-out: TGI
  IC (TGI): 3.01 µM
[3]; MOLT-4
  GI50: 1.55 µM
[3]; MOLT-4, read-out: LC50
  CC50: > 100 µM
[4]; 48 h, read-out: TGI MG_MID
  IC (TGI): 5.44 µM
[4]; read-out: GI50 MG_MID
  GI50: 2.13 µM
[4]; read-out: LC50 MG_MID
  CC50: 14.3 µM
[5]; SK-MEL-28
  GI50: 1.84 µM
[5]; SK-MEL-28, 48 h, read-out: TGI
  IC (TGI): 3.38 µM
[6]
  GI50: 1.93 µM
[6]; read-out: LC50
  CC50: > 100 µM
[7]; SNB-19
  GI50: 1.72 µM
[7]; SNB-19, 48 h, read-out: TGI
  IC (TGI): 3.54 µM
[8]; SK-MEL-2
  GI50: 2.19 µM
[8]; SK-MEL-2, 48 h, read-out: TGI
  IC (TGI): 4.83 µM
[8]; SK-MEL-2, read-out: LC50
  CC50: 16.4 µM
[9]
  GI50: 1.77 µM
[9]; 48 h, read-out: TGI
  IC (TGI): 3.56 µM
[10]; NCI-H226
  GI50: 1.71 µM
[10]; NCI-H226, 48 h, read-out: TGI
  IC (TGI): 3.77 µM
[11]; 48 h, read-out: TGI MG_MID
  IC (TGI): 4.24 µM
[11]; read-out: GI50 MG_MID
  GI50: 1.57 µM
[11]; read-out: LC50 MG_MID
  CC50: > 100 µM
[12]; OVCAR-3
  GI50: 1.84 µM
[12]; OVCAR-3, 48 h, read-out: TGI
  IC (TGI): 3.51 µM
[13]; MDA-MB-468
  GI50: 1.56 µM
[13]; MDA-MB-468, 48 h, read-out: TGI
  IC (TGI): 3.13 µM
[14]; RPMI-8226
  GI50: 2.03 µM
[14]; RPMI-8226, 48 h, read-out: TGI
  IC (TGI): 4.42 µM
[15]; 48 h, read-out: TGI MG_MID
  IC (TGI): 3.53 µM
[15]; read-out: GI50 MG_MID
  GI50: 1.81 µM
[15]; read-out: LC50 MG_MID
  CC50: 16.4 µM
[16]; U-251
  GI50: 1.74 µM
[16]; U-251, 48 h, read-out: TGI
  IC (TGI): 3.29 µM
[17]; 786-0
  GI50: 1.85 µM
[17]; 786-0, 48 h, read-out: TGI
  IC (TGI): 4.14 µM
[18]; MDA-MB-435
  GI50: 1.61 µM
[18]; MDA-MB-435, 48 h, read-out: TGI
  IC (TGI): 2.97 µM
[19]; SNB-75
  GI50: 1.48 µM
[19]; SNB-75, 48 h, read-out: TGI
  IC (TGI): 2.94 µM
[19]; SNB-75, read-out: LC50
  CC50: 5.85 µM
[20]; NCI-H460
  GI50: 1.77 µM
[20]; NCI-H460, 48 h, read-out: TGI
  IC (TGI): 3.37 µM
[21]; MCF7
  GI50: 1.62 µM
[21]; MCF7, 48 h, read-out: TGI
  IC (TGI): 3.38 µM
[22]
  GI50: 1.48 µM
[22]; 48 h, read-out: TGI
  IC (TGI): 2.96 µM
[23]; HCC 2998
  GI50: 1.63 µM
[23]; HCC 2998, 48 h, read-out: TGI
  IC (TGI): 3.21 µM
[24]; 48 h, read-out: TGI MG_MID
  IC (TGI): 3.27 µM
[24]; read-out: GI50 MG_MID
  GI50: 1.72 µM
[24]; read-out: LC50 MG_MID
  CC50: 6.35 µM
[25]; HOP-62
  GI50: 1.81 µM
[25]; HOP-62, 48 h, read-out: TGI
  IC (TGI): 3.56 µM
[26]; SK-MEL-5
  GI50: 1.9 µM
[26]; SK-MEL-5, 48 h, read-out: TGI
  IC (TGI): 3.68 µM
[27]; 48 h, read-out: TGI MG_MID
  IC (TGI): 3.63 µM
[27]; read-out: GI50 MG_MID
  GI50: 1.75 µM
[27]; read-out: LC50 MG_MID
  CC50: 9.14 µM
[28]; COLO 205
  GI50: 1.63 µM
[28]; COLO 205, 48 h, read-out: TGI
  IC (TGI): 3.19 µM
[29]; SK-OV-3
  GI50: 1.76 µM
[29]; SK-OV-3, 48 h, read-out: TGI
  IC (TGI): 3.26 µM
[29]; SK-OV-3, read-out: LC50
  CC50: 6.03 µM
